Source: PMC5399312 (Journal of Experimental & Clinical Cancer Research : CR, 2017)
Where two headings read alike, the source gives them in different places.

How the values were obtained:
SW480 cells [1] = experiment: Glucose uptake assay; assay type: cell-based, human; conditions: 48 h; versus untreated or Met treated control
Method: The Glucose Assay Kit (Rsbio, Shanghai, China) was used to analyse the glucose uptake. After 48 h drug treatment, media was collected and diluted within water. The amount of glucose in the media was then detected. Glucose uptake was determined by subtracting the amount of glucose in each sample from the total amount of glucose in the media (without cells). Met was used as a standard control in this assay.

SW480 cells [2] = experiment: Measurement of intracellular ATP level; assay type: cell-based, human; conditions: 75, 150 and 300 μM, 48 h
Method: After centrifugation, supernatants were assayed by ATP assay kit (KeyGen, Nanjing, China) to determine the generation of ATP. The assay was determined using the plate reader (Synergy HT, BioTek, USA) at 636 nm.

SW480 cells xenograft = conditions: for decrease of size and weight of tumors: 16 days, versus vehicle
Method: All animal experiments were performed in accordance with the Guide for the Care and Use of Laboratory Animals of Tongji Medical College, Huazhong University of Science and Technology and approved by the Ethics Committee. CB-17/ SCID mice (male, 4 weeks old) were purchased from Beijing HFK Bioscience CO., LTD (Beijing, China). SW480 cells were inoculated subcutaneously (3 × 10^6 cells) into the left flank of each mouse. […] The dose volume was 0.1 mL/10 g body weight, and the weights of mice were recorded every day. Meanwhile, the tumor volumes were measured with vernier calipers and calculated by the following formula: (A × B^2)/2, where A was length and B was width of the two-dimension tumor. After animals were sacrificed, tumor weights were measured. The inhibition ratio (%) was calculated using the following equation: I% = 100% × [Wtumor (vehicle) − Wtumor (treated)]/Wtumor (vehicle)

HK2 = target: T1, HK2 (Homo sapiens, UniProt P52789); experiment: In vitro enzyme inhibition assay (G6P-DH coupled, NADH 340 nm); assay type: biochemical; conditions: for Vmax: Lineweaver-Burk
T1 construct: made in house; host or cells: E. coli BL21 (DE3)
T1 sequence (P52789 1-917): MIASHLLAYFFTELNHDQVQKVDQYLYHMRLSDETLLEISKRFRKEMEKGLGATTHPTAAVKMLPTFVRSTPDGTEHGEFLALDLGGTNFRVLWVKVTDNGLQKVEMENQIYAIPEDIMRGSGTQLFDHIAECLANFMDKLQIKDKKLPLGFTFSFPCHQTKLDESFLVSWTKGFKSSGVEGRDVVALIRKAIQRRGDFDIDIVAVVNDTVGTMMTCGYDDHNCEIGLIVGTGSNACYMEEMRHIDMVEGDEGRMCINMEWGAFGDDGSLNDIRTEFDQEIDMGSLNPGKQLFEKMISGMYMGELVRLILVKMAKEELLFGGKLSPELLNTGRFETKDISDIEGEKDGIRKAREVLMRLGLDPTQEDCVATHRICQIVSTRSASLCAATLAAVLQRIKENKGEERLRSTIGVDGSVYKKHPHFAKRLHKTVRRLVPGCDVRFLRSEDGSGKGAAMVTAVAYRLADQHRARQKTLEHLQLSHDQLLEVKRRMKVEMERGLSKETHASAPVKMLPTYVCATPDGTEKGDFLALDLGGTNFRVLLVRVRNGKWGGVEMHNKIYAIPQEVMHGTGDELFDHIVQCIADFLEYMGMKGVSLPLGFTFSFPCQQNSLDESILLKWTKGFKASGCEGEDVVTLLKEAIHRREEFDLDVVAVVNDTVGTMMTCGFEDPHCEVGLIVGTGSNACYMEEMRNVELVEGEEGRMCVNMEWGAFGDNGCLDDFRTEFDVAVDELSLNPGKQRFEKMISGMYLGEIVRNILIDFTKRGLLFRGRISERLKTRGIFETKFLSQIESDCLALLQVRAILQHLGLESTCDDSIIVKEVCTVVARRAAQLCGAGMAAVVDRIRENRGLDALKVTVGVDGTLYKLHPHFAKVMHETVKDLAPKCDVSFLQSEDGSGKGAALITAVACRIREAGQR

MCF-7 = experiment: Cytotoxicity test (CCK-8); assay type: cell-based; conditions: Homo sapiens, MCF7; MCF-7, 48 h
Method: (§1) Met was used as a positive control. All experiments were performed in triplicate.

HCT116 = experiment: Cytotoxicity test (CCK-8); assay type: cell-based; conditions: Homo sapiens, HCT-116; HCT116, 48 h
Method: as §1

SMMC-7721 = experiment: Cytotoxicity test (CCK-8); assay type: cell-based; conditions: Homo sapiens, SMMC-7721, 48 h
Method: as §1

SW480 = experiment: Cytotoxicity test (CCK-8); assay type: cell-based; conditions: Homo sapiens, SW480, 48 h
Method: as §1

Lovo = experiment: Cytotoxicity test (CCK-8); assay type: cell-based; conditions: Homo sapiens, 48 h
Method: as §1

[3] = Cytotoxicity test (CCK-8); assay type: cell-based
Method: as §1

SW480 cells [4] = experiment: Flow cytometric analysis for apoptosis (Annexin-V/PI); assay type: cell-based, human; conditions: 48 h, control 0.7%
Method: Then the cells were harvested, washed twice with ice-cold PBS, and mixed in 100 μL of 1× binding buffer (10 mM HEPES/ NaOH, pH 7.4, 140 mM NaCl, 2.5 mM CaCl2). After culturing for 15 min at room temperature in Annexin-V/PI double staining liquid (Nanjing KeyGen Biotech. Inc.), the cells were examined by flow cytometry (BD Biosciences, FACSCalibur).

NC(CO)C(=O)NNCc1ccc(O)c(O)c1O (centres unmarked) [Benz, Benserazide]
glucose uptake (SW480 cells [1]): significantly lower
intracellular ATP level (SW480 cells [2]): reduced
decrease of size and weight of tumors (SW480 cells xenograft; 300 mg/Kg per day i.p.): 30.1%
decrease of size and weight of tumors (SW480 cells xenograft; 600 mg/Kg per day i.p.): 60.3%
toxicity in mice (SW480 cells xenograft; mouse, in vivo): no toxicity shown
body weight and histomorphology (SW480 cells xenograft; tumor-bearing mice, daily i.p. 16 days): no remarkable loss of body weight and change of histomorphology
Vmax (HK2; Benz 5 μM): 0.037 OD/min
Vmax (HK2; Benz 10 μM): 0.029 OD/min
Vmax (HK2; Benz 20 μM): 0.018 OD/min
mechanism of inhibition (HK2; versus glucose): combined mechanism of both competitive and noncompetitive binding
IC50 (MCF-7): 186 ± 12.5 µM
IC50 (HCT116): 181 ± 11.5 µM
IC50 (SMMC-7721): 210 ± 7.9 µM
IC50 (SW480): 143 ± 7 µM
IC50 (Lovo): 151 ± 4.5 µM
IC50 at 48 h ([3]; African green monkey, Vero normal cells): > 500 µM
IC50 at 48 h ([3]; human, LO2 normal cells): > 500 µM
apoptotic death (SW480 cells [4]; 75 μM): 10.4%
apoptotic death (SW480 cells [4]; 150 μM): 22.5%
apoptotic death (SW480 cells [4]; 300 μM): 44.1%
